Laboratory results published in article PMC4113800 (Marine Drugs, 2014).

What was measured:
[1] = MTT cytotoxicity assay, parental SW620 cells; assay type: cell-based; conditions: human
Method: (§1) The MTT assay was modified based on that previously described, using adherent cell lines SW620 and NCI-H460, and their P-gp over-expressing daughter cell line SW620 Ad300 and BCRP over-expressing daughter cell line NCI-H460/MX20, respectively. Briefly, cells were harvested with trypsin and added into 96-well microtitre assay plates at 2000 cells/well, followed by 18 h incubation at 37 °C with 5% CO2. […] Control wells were treated with 5% aqueous DMSO. […] 68 h later, 20 μL MTT (4 mg/mL in PBS) was dispensed into each well (final concentration 0.40 mg/mL), and plates were incubated for a further 4 h at 37 °C with 5% CO2. Finally medium was removed and precipitated formazan crystals were dissolved in 100% DMSO. The absorbance of each well was measured at 580 nm with a PowerWave XS Microplate Reader from Bio-Tek Instruments Inc. (Vinooski, VT, USA).
(§2) All experiments were performed in duplicate.

[2] = MTT cytotoxicity assay, P-gp over-expressing SW620 Ad300 cells; assay type: cell-based; conditions: human
Method: as §1, §2

SW620 Ad300 cells = assay: Reversal of P-gp mediated doxorubicin resistance (MTT assay); assay type: cell-based, human
Method: as §1, §2

NCI-H460 cells = assay: [3H]-mitoxantrone accumulation and efflux in parental NCI-H460 cells; assay type: cell-based, human; conditions: 11 at 10 or 30 μM, FTC 5.0 μM
Text: […]. […] […]

BCRP [3] = target: T1, BCRP (Homo sapiens, UniProt Q9UNQ0); assay: cell-based; conditions: for FAR (fluorescence arbitrary ratio), mitoxantrone fluorescence / % FTC (inhibition of mitoxantrone efflux normalized to 10 μM FTC): NCI-H460/MX20
T1 sequence (Q9UNQ0 1-655): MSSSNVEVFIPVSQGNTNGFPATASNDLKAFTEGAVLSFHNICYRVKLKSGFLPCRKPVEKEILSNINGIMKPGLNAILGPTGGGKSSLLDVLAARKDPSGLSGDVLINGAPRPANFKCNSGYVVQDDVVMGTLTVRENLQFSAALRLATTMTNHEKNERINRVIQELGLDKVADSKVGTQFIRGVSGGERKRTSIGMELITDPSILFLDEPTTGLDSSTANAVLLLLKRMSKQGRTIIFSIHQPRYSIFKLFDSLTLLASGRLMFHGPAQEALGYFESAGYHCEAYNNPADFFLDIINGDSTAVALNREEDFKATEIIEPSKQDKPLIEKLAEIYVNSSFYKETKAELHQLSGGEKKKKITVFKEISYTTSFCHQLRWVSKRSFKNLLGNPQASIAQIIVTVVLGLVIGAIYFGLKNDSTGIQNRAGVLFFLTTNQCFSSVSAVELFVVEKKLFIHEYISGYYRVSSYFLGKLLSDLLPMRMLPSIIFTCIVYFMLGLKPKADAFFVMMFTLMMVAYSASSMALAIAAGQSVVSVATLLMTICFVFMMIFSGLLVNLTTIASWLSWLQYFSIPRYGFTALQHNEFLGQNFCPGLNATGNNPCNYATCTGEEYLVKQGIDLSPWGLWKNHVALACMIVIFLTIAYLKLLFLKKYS
Method: (§3) Flow cytometry based assays were used to measure the ability of natural or synthetic compounds to inhibit P-gp, BCRP or MRP1 mediated accumulation and/or efflux of fluorescent reagents. […] For the calcein AM accumulation assays, cells were directly analyzed by flow cytometry.
(§4) Intracellular fluorescence intensity was measured on a BD FACSCanto™ II flow cytometer (Becton Dickinson, San Jose, CA, USA) and data were analyzed through FlowJo (Tree Star, Inc., Ashland, OR, USA). […] Mitoxantrone fluorescence was detected with a 638 nm […] laser and a 660/20 nm band-pass filter. At least 10,000 events were collected for all of the flow cytometry experiment. By increasing threshold value on forward scatter versus side scatter, debris was eliminated. Dead cells were excluded based on propidium iodide staining. Data are means ± SEM of at least three independent experiments performed in duplicate.

BCRP [4] = target: T1, BCRP; conditions: FTC 5.0 μM; [3H]-mitoxantrone 0.10 μM; NCI-H460/MX20
Method: In the efflux study cells were incubated with 0.1 μM [^3H]-mitoxantrone as the same in the accumulation study.

P-gp = target: T2, P-gp (Homo sapiens, UniProt P08183); assay type: cell-based; conditions: compound or verapamil 20 μM vs PBS; calcein AM […]; SW620 Ad300; further: calcein AM 0.25 µM
T2 construct: The drug-resistant P-gp over-expressing daughter cell line SW620 Ad300 was established by stepwise selection; endogenous in cells; host or cells: SW620 Ad300 (human colon cancer, doxorubicin-selected)
T2 sequence (P08183 whole entry): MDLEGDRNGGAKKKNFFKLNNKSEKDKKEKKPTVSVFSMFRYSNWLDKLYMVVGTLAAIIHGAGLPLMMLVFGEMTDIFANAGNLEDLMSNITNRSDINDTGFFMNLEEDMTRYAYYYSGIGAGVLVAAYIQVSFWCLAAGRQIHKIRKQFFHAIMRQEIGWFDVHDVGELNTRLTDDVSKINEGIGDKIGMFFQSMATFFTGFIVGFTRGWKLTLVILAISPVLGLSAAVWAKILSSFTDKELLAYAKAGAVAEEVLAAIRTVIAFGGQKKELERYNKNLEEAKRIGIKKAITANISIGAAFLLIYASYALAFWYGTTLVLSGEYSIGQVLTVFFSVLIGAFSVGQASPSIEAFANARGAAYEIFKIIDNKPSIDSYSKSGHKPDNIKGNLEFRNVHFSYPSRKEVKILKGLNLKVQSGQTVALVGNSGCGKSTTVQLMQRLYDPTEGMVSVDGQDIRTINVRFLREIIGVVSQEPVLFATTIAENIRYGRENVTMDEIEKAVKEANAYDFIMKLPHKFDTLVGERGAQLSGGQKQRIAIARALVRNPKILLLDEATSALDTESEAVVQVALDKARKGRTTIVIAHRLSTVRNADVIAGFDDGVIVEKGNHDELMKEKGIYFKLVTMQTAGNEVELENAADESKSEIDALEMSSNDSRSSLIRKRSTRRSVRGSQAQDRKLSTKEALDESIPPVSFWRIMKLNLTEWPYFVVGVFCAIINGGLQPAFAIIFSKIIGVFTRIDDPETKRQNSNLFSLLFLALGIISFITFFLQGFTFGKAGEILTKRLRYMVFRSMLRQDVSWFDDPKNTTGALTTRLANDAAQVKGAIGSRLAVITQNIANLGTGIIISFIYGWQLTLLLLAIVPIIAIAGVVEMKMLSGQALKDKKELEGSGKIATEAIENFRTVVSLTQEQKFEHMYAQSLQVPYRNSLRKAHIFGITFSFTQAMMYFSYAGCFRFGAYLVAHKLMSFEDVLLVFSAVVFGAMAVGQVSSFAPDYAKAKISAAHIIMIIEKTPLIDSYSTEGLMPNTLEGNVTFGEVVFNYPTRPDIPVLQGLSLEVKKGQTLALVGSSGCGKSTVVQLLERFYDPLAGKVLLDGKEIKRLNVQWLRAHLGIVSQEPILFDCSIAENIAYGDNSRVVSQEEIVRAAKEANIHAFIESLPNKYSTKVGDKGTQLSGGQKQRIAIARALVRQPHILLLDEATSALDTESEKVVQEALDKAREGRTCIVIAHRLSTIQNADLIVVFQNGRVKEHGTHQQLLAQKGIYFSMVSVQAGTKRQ
Method: as §3, §4

## COC(=O)c1c(-c2ccc(O)cc2)c(-c2ccc(O)cc2)cn1CC(=O)c1ccc(OC)cc1 [Compound 11, lamellarin O]
[1]
  IC50 at 68 h: 22 µM
[2]
  IC50 at 68 h: 22.3 µM
SW620 Ad300 cells; lamellarin O (11) 5.0 μM
  DMF (dose-modifying factor), increase in sensitivity towards doxorubicin: 1.5 fold
SW620 Ad300 cells; lamellarin O (11) 10 μM
  DMF (dose-modifying factor), increase in sensitivity towards doxorubicin: 3.1 fold
SW620 Ad300 cells; lamellarin O (11) […] μM
  DMF (dose-modifying factor), increase in sensitivity towards doxorubicin: 4.8 fold
NCI-H460 cells
  effect on intracellular [3H]-mitoxantrone levels, accumulation phase: neither 11 (10 or 30 μM) nor FTC (5.0 μM) significantly changed intracellular [^3H]-mitoxantrone levels
  effect on intracellular [3H]-mitoxantrone levels, efflux phase: Neither 11 nor FTC had a significant effect

## COc1ccc2c3c([nH]c2c1)[C@H](C=C(C)C)N1C(=O)[C@@H]2CCCN2C(=O)[C@@H]1C3 [FTC, Fumitremorgin C, reference compound]
BCRP [3]; FTC 10 μM (positive control) vs PBS
  FAR (fluorescence arbitrary ratio), mitoxantrone fluorescence: 3.17 fold
BCRP [3]; FTC 10 μM (positive control, set as 100%)
  % FTC (inhibition of mitoxantrone efflux normalized to 10 μM FTC): 100 % FTC
BCRP [4]
  increase in [3H]-mitoxantrone accumulation: 2.2 fold
NCI-H460 cells
  effect on intracellular [3H]-mitoxantrone levels, accumulation phase: neither 11 (10 or 30 μM) nor FTC (5.0 μM) significantly changed intracellular [^3H]-mitoxantrone levels
  effect on intracellular [3H]-mitoxantrone levels, efflux phase: Neither 11 nor FTC had a significant effect

## COC(=O)c1[nH]cc(-c2ccc(O)cc2)c1-c1ccc(O)cc1 [Compound 12, lamellarin Q]
[1]
  IC50 at 68 h: > 30 µM
[2]
  IC50 at 68 h: > 30 µM
P-gp
  FAR (fluorescence arbitrary ratio), intracellular calcein fluorescence: 0.54 fold
BCRP [3]; compound 20 μM vs PBS
  FAR (fluorescence arbitrary ratio), mitoxantrone fluorescence: 1.41 fold
BCRP [3]; compound 20 μM
  % FTC (inhibition of mitoxantrone efflux normalized to 10 μM FTC): 18.6 % FTC

## COC(=O)C1(O)OC(=O)C(c2ccc(O)cc2)=C1c1ccc(O)cc1 (stereo not drawn) [Compound 7, ianthellidone G]
[1]
  IC50 at 68 h: > 30 µM
[2]
  IC50 at 68 h: > 30 µM
P-gp
  FAR (fluorescence arbitrary ratio), intracellular calcein fluorescence: 0.67 fold
BCRP [3]; compound 20 μM vs PBS
  FAR (fluorescence arbitrary ratio), mitoxantrone fluorescence: 1.09 fold
BCRP [3]; compound 20 μM
  % FTC (inhibition of mitoxantrone efflux normalized to 10 μM FTC): 4.06 % FTC

## COc1cccc2c1C(=O)c1c(O)c3c(c(O)c1C2=O)C[C@@](O)(C(=O)CO)C[C@@H]3O[C@H]1C[C@H](N)[C@H](O)[C@H](C)O1 [doxorubicin, reference compound]
SW620 Ad300 cells; Homo sapiens, doxorubicin alone
  IC50: 4.44 ± 0.21 µM

## COC(=O)C1(O)NC(=O)C(c2ccc(O)cc2)=C1c1ccc(O)cc1 (stereo not drawn) [Compound 1, ianthellidone A]
[1]
  IC50 at 68 h: > 30 µM
[2]
  IC50 at 68 h: > 30 µM
P-gp
  FAR (fluorescence arbitrary ratio), intracellular calcein fluorescence: 0.63 fold
BCRP [3]; compound 20 μM vs PBS
  FAR (fluorescence arbitrary ratio), mitoxantrone fluorescence: 0.97 fold
BCRP [3]; compound 20 μM
  % FTC (inhibition of mitoxantrone efflux normalized to 10 μM FTC): <1.00 % FTC

## COCN1C(=O)C(c2ccc(O)cc2)=C(c2ccc(O)cc2)C1(O)C(=O)OC (stereo not drawn) [Compound 3, ianthellidone C]
[1]
  IC50 at 68 h: > 30 µM
[2]
  IC50 at 68 h: > 30 µM
P-gp
  FAR (fluorescence arbitrary ratio), intracellular calcein fluorescence: 0.61 fold
BCRP [3]; compound 20 μM vs PBS
  FAR (fluorescence arbitrary ratio), mitoxantrone fluorescence: 1.12 fold
BCRP [3]; compound 20 μM
  % FTC (inhibition of mitoxantrone efflux normalized to 10 μM FTC): 5.60 % FTC

## COC(=O)c1c(Br)c(Br)c(Br)n1CC(=O)c1ccc(OC)cc1 [Compound 16]
BCRP [3]; compound 20 μM vs PBS
  FAR (fluorescence arbitrary ratio), mitoxantrone fluorescence: 1.20 fold
BCRP [3]; compound 20 μM
  % FTC (inhibition of mitoxantrone efflux normalized to 10 μM FTC): 5.45 % FTC

## COC(=O)c1ccc(Br)n1CC(=O)c1ccc(OC)cc1 [Compound 15]
BCRP [3]; compound 20 μM vs PBS
  FAR (fluorescence arbitrary ratio), mitoxantrone fluorescence: 0.97 fold
BCRP [3]; compound 20 μM
  % FTC (inhibition of mitoxantrone efflux normalized to 10 μM FTC): < 1.00 % FTC

## CCOC(=O)CN1C(=O)C(c2ccc(O)cc2)=C(c2ccc(O)cc2)C1(O)C(=O)OC (stereo not drawn) [Compound 5, ianthellidone E]
[1]
  IC50 at 68 h: > 30 µM
[2]
  IC50 at 68 h: > 30 µM
P-gp
  FAR (fluorescence arbitrary ratio), intracellular calcein fluorescence: 0.59 fold
BCRP [3]; compound 20 μM vs PBS
  FAR (fluorescence arbitrary ratio), mitoxantrone fluorescence: 1.14 fold
BCRP [3]; compound 20 μM
  % FTC (inhibition of mitoxantrone efflux normalized to 10 μM FTC): 6.20 % FTC

## CCOC1(C(=O)OC)NC(=O)C(c2ccc(O)cc2)=C1c1ccc(O)cc1 (stereo not drawn) [Compound 2, ianthellidone B]
[1]
  IC50 at 68 h: > 30 µM
[2]
  IC50 at 68 h: > 30 µM
P-gp
  FAR (fluorescence arbitrary ratio), intracellular calcein fluorescence: 0.52 fold
BCRP [3]; compound 20 μM vs PBS
  FAR (fluorescence arbitrary ratio), mitoxantrone fluorescence: 1.07 fold
BCRP [3]; compound 20 μM
  % FTC (inhibition of mitoxantrone efflux normalized to 10 μM FTC): 3.13 % FTC

## COC(=O)c1c(-c2ccc(O)cc2)c(-c2ccc(O)cc2)cn1CC(O)c1ccc(O)cc1 (stereo not drawn) [Compound 10, lamellarin O2]
[1]
  IC50 at 68 h: > 30 µM
[2]
  IC50 at 68 h: > 30 µM
P-gp
  FAR (fluorescence arbitrary ratio), intracellular calcein fluorescence: 0.60 fold
BCRP [3]; compound 20 μM vs PBS
  FAR (fluorescence arbitrary ratio), mitoxantrone fluorescence: 1.11 fold
BCRP [3]; compound 20 μM
  % FTC (inhibition of mitoxantrone efflux normalized to 10 μM FTC): 5.13 % FTC

## COC(=O)C1(OC)OC(=O)C(c2ccc(O)cc2)=C1c1ccc(O)cc1 (stereo not drawn) [Compound 8, ianthellidone H]
[1]
  IC50 at 68 h: > 30 µM
[2]
  IC50 at 68 h: > 30 µM
P-gp
  FAR (fluorescence arbitrary ratio), intracellular calcein fluorescence: 0.60 fold
BCRP [3]; compound 20 μM vs PBS
  FAR (fluorescence arbitrary ratio), mitoxantrone fluorescence: 1.13 fold
BCRP [3]; compound 20 μM
  % FTC (inhibition of mitoxantrone efflux normalized to 10 μM FTC): 6.06 % FTC

## COC(=O)c1c(-c2ccc(O)cc2)c(-c2ccc(O)cc2)cn1CC(=O)c1ccc(O)cc1 [Compound 9, lamellarin O1]
[1]
  IC50 at 68 h: > 30 µM
[2]
  IC50 at 68 h: > 30 µM
P-gp
  FAR (fluorescence arbitrary ratio), intracellular calcein fluorescence: 0.61 fold
BCRP [3]; compound 20 μM vs PBS
  FAR (fluorescence arbitrary ratio), mitoxantrone fluorescence: 1.23 fold
BCRP [3]; compound 20 μM
  % FTC (inhibition of mitoxantrone efflux normalized to 10 μM FTC): 10.6 % FTC

## COC(=O)C1(O)C(c2ccc(O)cc2)=C(c2ccc(O)cc2)C(=O)N1CC(=O)c1ccc(OC)cc1 (stereo not drawn) [Compound 6, ianthellidone F]
[1]
  IC50 at 68 h: > 30 µM
[2]
  IC50 at 68 h: > 30 µM
P-gp
  FAR (fluorescence arbitrary ratio), intracellular calcein fluorescence: 0.61 fold
BCRP [3]; compound 20 μM vs PBS
  FAR (fluorescence arbitrary ratio), mitoxantrone fluorescence: 1.21 fold
BCRP [3]; compound 20 μM
  % FTC (inhibition of mitoxantrone efflux normalized to 10 μM FTC): 9.79 % FTC

## COC(=O)c1cc(Br)cn1CC(=O)c1ccc(OC)cc1 [Compound 14]
BCRP [3]; compound 20 μM vs PBS
  FAR (fluorescence arbitrary ratio), mitoxantrone fluorescence: 1.03 fold
BCRP [3]; compound 20 μM
  % FTC (inhibition of mitoxantrone efflux normalized to 10 μM FTC): < 1.00 % FTC

## COC(=O)c1cccn1CC(=O)c1ccc(OC)cc1 [Compound 13]
BCRP [3]; compound 20 μM vs PBS
  FAR (fluorescence arbitrary ratio), mitoxantrone fluorescence: 1.00 fold
BCRP [3]; compound 20 μM
  % FTC (inhibition of mitoxantrone efflux normalized to 10 μM FTC): < 1.00 % FTC

## CCOCN1C(=O)C(c2ccc(O)cc2)=C(c2ccc(O)cc2)C1(O)C(=O)OC (stereo not drawn) [Compound 4, ianthellidone D]
[1]
  IC50 at 68 h: > 30 µM
[2]
  IC50 at 68 h: > 30 µM
P-gp
  FAR (fluorescence arbitrary ratio), intracellular calcein fluorescence: 0.60 fold
BCRP [3]; compound 20 μM vs PBS
  FAR (fluorescence arbitrary ratio), mitoxantrone fluorescence: 1.15 fold
BCRP [3]; compound 20 μM
  % FTC (inhibition of mitoxantrone efflux normalized to 10 μM FTC): 6.66 % FTC

## COC(=O)c1c(-c2ccc(OC)cc2)c(-c2ccc(OC)cc2)cn1CC(=O)c1ccc(OC)cc1 [Compound 19, 4′,4″-dimethyl-lamellarin O]
BCRP [3]
  IC50: > 100 µM

## COc1ccc(CCN(C)CCCC(C#N)(c2ccc(OC)c(OC)c2)C(C)C)cc1OC (stereo not drawn) [verapamil, reference compound]
SW620 Ad300 cells; verapamil […]
  DMF (dose-modifying factor), increase in sensitivity towards doxorubicin: 8.8 fold
